Reference: patent US20260015339A1, “CALIX[4]ARENES WITH HIGH ANTICANCER ACTIVITY” (UNIVERSITE GRENOBLE ALPES, priority 2023, published 2026)

Columns and labels:
[1] = Cu^+ binding by 1H NMR titration; conditions: 1H NMR titration with Cu(MeCN)4BF4, CD3CN/CDCl3 4/1, 298 K
Protocol: Binding abilities and complexation constants of the examples of calix[4]arenes of the present invention and the comparative examples with Cu^+ were evaluated by ^1H NMR titrations at 298 K using copper(I)tetrakis(acetronitrile)tetrafluoroborate.
For example, for each separate calix[4]arene a stock solution of the tested calix[4]arene was prepared in a CD3CN/CDCl3, 4/1 mixture. Using this stock solution, a Cu(MeCN)4BF4 solution was prepared and added by steps of 0.25 equivalent of copper(I) up until 1 equivalent and then by steps of 0.5 equivalent until a total of at least 2 equivalents. ^1H NMR spectra were recorded at a 400 MHz spectrometer at 298 K for the stock solutions of the calix[4]arenes and after each addition of Cu(MeCN)4BF4.
Calix[4]arenes for which a gradual change of the chemical shifts of the ^1H NMR signals (>0.1 ppm for at least one of the signals) was observed upon addition of up to 4-5 equivalents of Cu(MeCN)4BF4 were considered to show weak binding.

[2] = Cu^+ transport into liposomes with encapsulated BCS; conditions: POPC/cholesterol 7:3 LUVs, calix[4]arene to lipid 1:1000, 50 μM copper gradient, F/F0 after 600 s
Protocol: The ability of the examples of calix[4]arenes of the invention and the comparative examples to be delivered into a lipidic bilayer membrane of a liposome from a solution and their capacity to then act as a transporter of Cu^+ was evaluated using bathocuproine disulphonate (hereafter abbreviated “BCS”) encapsulated in large unilamellar vesicles (LUVs, also referred to as liposomes) composed of 1-palmitoyl-2-oleoyl-sn-glycero-3-phosphocholine and cholesterol in a 7:3 ratio.
BCS is a fluorescent water soluble phenantroline derivative that can be used as fluorescent dye for the sensing of Cu^+ through the formation of a non-fluorescent 2:1 complex.
Stock solution of lipids were prepared using deacidified CHCl3 and stored in a freezer. CHCl3 was deacidified by passing through activated basic alumina. The lipids used to prepare the liposomes were 2-oleoyl-1-palmitoyl-sn-glycero-3-phosphocholine (POPC), (purity ≥99%) and cholesterol (purity of 95%). 50 mM sodium phosphate buffer were prepared with Millipore water at pH 7 (±0.1) by mixing the solution of the mono- and the di-protonated phosphate salts. The solution of the dye (BCS) was prepared at 0.5 mM concentration in phosphate buffer.
The lipids solutions were mixed in different ratios in a 5 mL round bottom flask. The POPC/cholesterol molar ratio was 7:3 in all experiments. The total amount of lipids per batch varied depending on the amount of liposomes solution required for the experiment. After mixing the lipid solutions in a round bottom flask, the chloroform was evaporated under a gentle air flow and the resulting lipid film was dried at high vacuum for at least an hour. 500 μL of the BCS solution in phosphate buffer and a magnetic stir bar were added to the flask. The flask was then sonicated for 30 seconds and placed under magnetic agitation for at least an hour. The solution was frozen with liquid nitrogen and heated back to room temperature with warm water ten times to form large unilamellar vesicles (LUVs). The liposome solution was extruded 29 times, using an extrusion kit equipped with a membrane with 200 nm pores. Subsequently, the solution was eluted with the buffer solution used for the experiment through a size exclusion column (Sephadex G-25) to remove the external BCS and then diluted with phosphate buffer to obtain a concentration of 0.4 mM in lipids.
Solutions of the calix[4]arenes were prepared at a concentration of 0.24 mM in DMSO and 5 μL of the solution was added 2 minutes before each transport measurement.
Alternatively, calix[4]arenes were pre-incorporated by combining the calix[4]arene (dissolved in chloroform) with the lipids prior to the evaporation of the chloroform to obtain a lipid film. The concentrations and volumes were chosen to obtain a calix[4]arene to lipid of 1:1000.
Fluorescence measurements were performed with a Horiba FluoroMax 4 spectrometer using a 4-faced quartz cuvette (10 mm×10 mm). For the Cu^+ transport assay, the excitation was set at 278 nm and emission was recorded at 393 nm. These values correspond to the excitation and emission maxima of BCS encapsulated inside LUVs.
The Cu^+ solutions added to the liposomes were obtained by dissolving Cu(MeCN)4BF4 in MeCN at 15.25 mM concentration. The copper solution was then diluted by a factor 5 in a phosphate buffer during the first 30 seconds of the experiment to reach a copper concentration of 3.05 mM. 50 μL of the diluted copper solution was added to 3 mL of liposomes, resulting in a copper gradient of 50 μM. The fluorescence level was monitored for 600 seconds after the addition of the copper solution.
For each run the initial plateau and the initial vertical drop (due to the binding of the exterior dye with Cu^+ and the dilution, 1-4 seconds after the addition) were removed. Then the signal was normalised by dividing the fluorescence values (F) by the value at t=0 second (F0). […]

[3] = test system: H322 lung carcinoma cells; test: MTS cytotoxicity assay on H322; assay type: cell-based; conditions: NCI-H322; H322, 72 hours of treatment
Protocol: H322 lung carcinoma cells were seeded in 96-well plates together with the calix[4]arene of the formula (2). Cells were grown in RPMI-1640 supplemented with GlutaMAX™ (Gibco™) and fetal calf serum (FCS, 10%) and treated with a broad range of concentrations of the calix[4]arene of the formula (2). After 72 hours of treatment, the cytotoxicity was measured by means of the IC50 value, using the kit “CellTiter 96R AQuous One Solution Cell Proliferation Assay (MTS)” from Promega™. Following 30 minutes of incubation with the MTS reagent, the endpoint measurements were done in triplicate at 485 nm, using a fluorescence plate reader.
H322 lung carcinoma cells were seeded in 96-well plates together with the compound of the 2nd comparative example of the formula (XI). Cells were grown in RPMI-1640 supplemented with GlutaMAX™ (Gibco™) and fetal calf serum (FCS, 10%) and treated with a broad range of concentrations of the 2nd comparative example of the formula (XI). After 72 hours of treatment, the cytotoxicity was measured by means of the IC50 value, using the kit “CellTiter 96R AQuous One Solution Cell Proliferation Assay (MTS)” from Promega™. Following 30 minutes of incubation with the MTS reagent, the endpoint measurements were done in triplicate at 485 nm, using a fluorescence plate reader.
H322 lung carcinoma cells were seeded in 96-well plates together with the 1st comparative example of the formula (X). Cells were grown in RPMI-1640 supplemented with GlutaMAX™ (Gibco™) and fetal calf serum (FCS, 10%) and treated with a broad range of concentrations of the compound of the formula (X). After 72 hours of treatment, the cytotoxicity was measured by means of the IC50 value, using the kit “CellTiter 96R AQuous One Solution Cell Proliferation Assay (MTS)” from Promega™. Following 30 minutes of incubation with the MTS reagent, the endpoint measurements were done in triplicate at 485 nm, using a fluorescence plate reader.
H322 lung carcinoma cells were seeded in 96-well plates together with the tested calix[4]arenes. Cells were grown in RPMI-1640 supplemented with GlutaMAX™ (Gibco™) and fetal calf serum (FCS, 10%) and treated with a broad range of concentrations of the tested calix[4]arenes. After 72 hours of treatment, the cytotoxicity was measured by means of the IC50 value, using the kit “CellTiter 96R AQuous One Solution Cell Proliferation Assay (MTS)” from Promega™. Following 30 minutes of incubation with the MTS reagent, the endpoint measurements were done in triplicate at 485 nm, using a fluorescence plate reader.

[4] = test system: Hepatocellular carcinoma (HepG2/C3A) cells; test: MTT cytotoxicity assay (DL50); assay type: cell-based; conditions: 24 hours of incubation
Protocol: Cytotoxicity was evaluated using the MTT assay. 1.10^4 cells per well were seeded in a flat-bottom 96-well plate and were incubated for 48 hours at 37° C. with 5% CO2 before addition of the different calix[4]arenes at concentrations up to 200 μM. In all experiments, each condition was performed in triplicate in the plate. Besides, each experiment was done three times independently. After 24 hours of incubation in presence of the compounds, medium was discarded, cells were rinsed with PBS and 100 μL of medium containing 0.5 mg/mL of MTT was added to each well. After 30 minutes of incubation at 37° C., MTT solution was discarded and formazan crystals formed were dissolved in 150 μL of 4 mM HCl, 0.1% NP40 in isopropanol. The absorbance in the wells were read in a microplate reader (Tecan microplate reader-550) at 570 nm.

[5] = test system: PC9 human lung cancer cells; test: MTS cytotoxicity assay, combination with CuCl2, PC9; conditions: 72 hours
Protocol: PC9 human lung cancer cells were seeded in 96-well plates together with the calix[4]arene of the formula (2) and CuCl2. Cells were grown in RPMI-1640 supplemented with GlutaMAX™ (Gibco™) and fetal calf serum (FCS, 10%) treated with a broad range of concentrations of the calix[4]arene of the formula (2) or/and CuCl2 from Merck. After 72 hours of treatment, the cytotoxicity was measured by means of the IC50 value, using the kit “CellTiter 96R AQuous One Solution Cell Proliferation Assay (MTS)” from Promega™. Following 30 minutes of incubation with the MTS reagent, the endpoint measurements were done in triplicate at 485 nm, using a fluorescence plate reader.

[6] = test system: H322 lung carcinoma cells; test: MTS cytotoxicity assay, combination with CuCl2, H322; conditions: 72 hours
Protocol: H322 lung carcinoma cells were seeded in 96-well plates together with the calix[4]arene of the formula (2) and CuCl2. Cells were grown in RPMI-1640 supplemented with GlutaMAX™ (Gibco™) and fetal calf serum (FCS, 10%) treated with a broad range of concentrations of the calix[4]arene of the formula (2) or/and CuCl2 from Merck. After 72 hours of treatment, the cytotoxicity was measured by means of the IC50 value, using the kit “CellTiter 96R AQuous One Solution Cell Proliferation Assay (MTS)” from Promega™ Following 30 minutes of incubation with the MTS reagent, the endpoint measurements were done in triplicate at 485 nm, using a fluorescence plate reader.

[7] = test system: A549 human lung cancer cells; test: MTS cytotoxicity assay, combination with CuCl2, A549; conditions: 72 hours
Protocol: A549 human lung cancer cells were seeded in 96-well plates together with the calix[4]arene of the formula (2) and CuCl2. Cells were grown in RPMI-1640 supplemented with GlutaMAX™ (Gibco™) and fetal calf serum (FCS, 10%) treated with a broad range of concentrations of the calix[4]arene of the formula (2) or/and CuCl2 from Merck. After 72 hours of treatment, the cytotoxicity was measured by means of the IC50 value, using the kit “CellTiter 96R AQuous One Solution Cell Proliferation Assay (MTS)” from Promega™. Following 30 minutes of incubation with the MTS reagent, the endpoint measurements were done in triplicate at 485 nm, using a fluorescence plate reader.

SMILES	Cu^+ binding [1]	Cu^+ transport [2]	IC50 [3]	IC50 [4]	further results
C=CCOc1c2cccc1Cc1cccc(c1OCc1nccn1C)Cc1cccc(c1OCC=C)Cc1cccc(c1OCc1nccn1C)C2 [(3)]	Strong binding (means an affinity constant (Ka) equal or greater than 10^5 M^−1)	Yes (means that a significant decrease of the fluorescence of encapsulated BCS was observed upon addition of Cu^+ to the liposomes (F/F0<0.65 after 600 s))	5 µM	4.5 µM	
CCOC(=O)COc1c2cccc1Cc1cccc(c1OCc1nccn1C)Cc1cccc(c1OCC(=O)OCC)Cc1cccc(c1OCc1nccn1C)C2 [(4)]	Strong binding (means an affinity constant (Ka) equal or greater than 10^5 M^−1)	Yes (means that a significant decrease of the fluorescence of encapsulated BCS was observed upon addition of Cu^+ to the liposomes (F/F0<0.65 after 600 s))	6 µM	3.1 µM	
COc1c2cccc1Cc1cccc(c1OCc1nccn1C)Cc1cccc(c1OC)Cc1cccc(c1OCc1nccn1C)C2 [(5)]	Strong binding (means an affinity constant (Ka) equal or greater than 10^5 M^−1)	Yes (means that a significant decrease of the fluorescence of encapsulated BCS was observed upon addition of Cu^+ to the liposomes (F/F0<0.65 after 600 s))	> 10 µM	23 µM	
CCCOc1c2cccc1Cc1cccc(c1OCc1nc3ccccc3n1C)Cc1cccc(c1OCCC)Cc1cccc(c1OCc1nc3ccccc3n1C)C2 [(8)]	Strong binding (means an affinity constant (Ka) equal or greater than 10^5 M^−1)	Yes (means that a significant decrease of the fluorescence of encapsulated BCS was observed upon addition of Cu^+ to the liposomes (F/F0<0.65 after 600 s))		128 µM	
CCCOc1c2cccc1Cc1cccc(c1OCc1ncco1)Cc1cccc(c1OCCC)Cc1cccc(c1OCc1ncco1)C2 [(9)]	Weak binding (means a change of the chemical shifts of the ^1H NMR signals (>0.1 ppm for at least one of the signals) is observed upon addition of up to 4-5 equivalents of Cu(MeCN)4BF4)	Yes (means that a significant decrease of the fluorescence of encapsulated BCS was observed upon addition of Cu^+ to the liposomes (F/F0<0.65 after 600 s))		70 µM	
CCCOc1c2cccc1Cc1cccc(c1OCc1nccs1)Cc1cccc(c1OCCC)Cc1cccc(c1OCc1nccs1)C2 [(10)]	Weak binding (means a change of the chemical shifts of the ^1H NMR signals (>0.1 ppm for at least one of the signals) is observed upon addition of up to 4-5 equivalents of Cu(MeCN)4BF4)	Yes (means that a significant decrease of the fluorescence of encapsulated BCS was observed upon addition of Cu^+ to the liposomes (F/F0<0.65 after 600 s))			
CCCOc1c2cccc1Cc1cccc(c1OCc1ccccn1)Cc1cccc(c1OCCC)Cc1cccc(c1OCc1ccccn1)C2 [(38)]	Strong binding (means an affinity constant (Ka) equal or greater than 10^5 M^−1)	Yes (means that a significant decrease of the fluorescence of encapsulated BCS was observed upon addition of Cu^+ to the liposomes (F/F0<0.65 after 600 s))			
Oc1c(I)cc(Cl)c2cccnc12 [Clioquinol, clioquinol, reference compound]				67 µM	
[Cl][Cu][Cl] [Cu^2+, CuCl2]					percentage of cell viability ([5]; PC9, Cu^2+ 1 μM alone ((2) 0 μM)): 90.9%; percentage of cell viability ([5]; PC9, Cu^2+ 5 μM alone ((2) 0 μM)): 87.1%; percentage of cell viability ([5]; PC9, Cu^2+ 10 μM alone ((2) 0 μM)): 81.0%; percentage of cell viability ([5]; PC9, Cu^2+ 25 μM alone ((2) 0 μM)): 77.1%; percentage of cell viability ([5]; PC9, Cu^2+ 50 μM alone ((2) 0 μM)): 68.8%; percentage of cell viability ([6]; H322, Cu^2+ 1 μM alone ((2) 0 μM)): 87.2%; percentage of cell viability ([6]; H322, Cu^2+ 5 μM alone ((2) 0 μM)): 83.3%; percentage of cell viability ([6]; H322, Cu^2+ 10 μM alone ((2) 0 μM)): 79.5%; percentage of cell viability ([6]; H322, Cu^2+ 25 μM alone ((2) 0 μM)): 72.9%; percentage of cell viability ([6]; H322, Cu^2+ 50 μM alone ((2) 0 μM)): 60.6%; percentage of cell viability ([7]; A549, Cu^2+ 1 μM alone ((2) 0 μM)): 89.4%; percentage of cell viability ([7]; A549, Cu^2+ 5 μM alone ((2) 0 μM)): 88.1%; percentage of cell viability ([7]; A549, Cu^2+ 10 μM alone ((2) 0 μM)): 84.6%; percentage of cell viability ([7]; A549, Cu^2+ 25 μM alone ((2) 0 μM)): 85.6%; percentage of cell viability ([7]; A549, Cu^2+ 50 μM alone ((2) 0 μM)): 79.4%
CCCOc1c2cccc1Cc1cccc(c1OCc1nccn1C)Cc1cccc(c1OCCC)Cc1cccc(c1OCc1nccn1C)C2 [formula (2)]				3.1 µM	
